Literature values in PMC10800708, “Efficacies and ADME properties of redox active methylene blue and phenoxazine analogues for use in new antimalarial triple drug combinations with amino-artemisinins” (Frontiers in Pharmacology, 2024).

Legend:
[1] = parameters: method as in Gibhard et al., 2021; details: murine model, ref Gibhard et al., 2021; cited from earlier work
[2] = tested on: multidrug resistant Pf K1 strain; parameters: method as in Wittlin et al., 2013; details: tritiated hypoxanthine assay; ref Wittlin et al., 2013; read-out: Activity against multidrug resistant Pf K1 strain; cited from earlier work
[3] = parameters: method as in Wittlin et al., 2013; details: ref Wittlin et al., 2013; cited from earlier work
[4] = parameters: method as in Agency, 2009; details: ref Agency, 2009; cited from earlier work
[5] = tested on: asexual blood stage of P. falciparum; parameters: method as in Coertzen et al., 2018; details: ref Coertzen et al., 2018; cited from earlier work
gametocytes = tested on: gametocytes; parameters: method as in Coertzen et al., 2018; details: ref Coertzen et al., 2018; cited from earlier work
[6] = human, in vivo; cited from earlier work

## C[C@H]1[C@H](N2CCSCC2)O[C@@H]2O[C@@]3(C)CC[C@H]4[C@H](C)CC[C@@H]1[C@@]24OO3 [artemiside]
[1]
  Cmax relative to that after oral administration of artemisone: 2.6 fold

## CCN(CC)c1ccc2nc3c4ccccc4/c(=N\c4ccncc4)cc-3oc2c1 [SSJ-183]
[2]
  IC50: 7.6 nM
[3]
  half-life: 10.3 h

## CN(C)c1ccc2nc3ccc(=[N+](C)C)cc-3sc2c1 [MB, methylene blue]
[4]
  Protein bound: 94%
[5]
  Interaction with artemisone against the asexual blood stage: only an additive effect
gametocytes
  Interaction with artemisone, gametocytocidal activity: synergistically enhanced
[6]
  Bioavailability: 72.3± 23.9%
  Mean terminal half-life: 5.25 h
